Assay results taken from US5883243A, “Non-reducing saccharides, their preparations and uses” (Kabushiki Kaisha Hayashibara Seibutsu Kagaku Kenkyujo, priority 1997, dated 1999).

Columns and labels:
[1] = test system: Streptococcus faecalis IAM 10065; test: Assimilation test by intestinal microorganism; assay type: cell-based; settings: 0.5 w/v % saccharide in PYF broth, 37° C., 96 hours
[2] = test system: Clostridium perfringens JCM 3816; assay type: cell-based; settings: 0.5 w/v % saccharide in PYF broth, 37° C., 96 hours
[3] = test system: Bifidobacterium breve JCM 1192; test: Assimilation test by intestinal microorganism; assay type: cell-based; settings: 0.5 w/v % saccharide in PYF broth, 37° C., 96 hours
[4] = test system: Clostridium butyricum JCM 1391; assay type: cell-based; settings: 0.5 w/v % saccharide in PYF broth, 37° C., 96 hours
[5] = test system: Bacteroides distasonis JCM 5825; test: Assimilation test by intestinal microorganism; assay type: cell-based; settings: 0.5 w/v % saccharide in PYF broth, 37° C., 96 hours
[6] = test system: Bifidobacterium infantis JCM 1222; test: Assimilation test by intestinal microorganism; assay type: cell-based; settings: 0.5 w/v % saccharide in PYF broth, 37° C., 96 hours
[7] = test system: Clostridium sporogenes JCM 1416; test: Assimilation test by intestinal microorganism; assay type: cell-based; settings: 0.5 w/v % saccharide in PYF broth, 37° C., 96 hours, free of sugar: ±
Method: (§1) To evaluate the growth rate of and to judge the assimilability by the microorganisms, the resultant broth was diluted 5-fold, and the turbidity of the dilution was measured at a wavelength of 750 nm in a 1-cm light-path cell. […] The criteria were in Table 3, and the results were in Tables 4 and 5: […]

[8] = test system: Bifidobacterium adolescentis JCM 1275; test: Assimilation test by intestinal microorganism; assay type: cell-based; settings: 0.5 w/v % saccharide in PYF broth, 37° C., 96 hours
[9] = test system: Escherichia coli IFO 3301; test: Assimilation test by intestinal microorganism; assay type: cell-based; settings: 0.5 w/v % saccharide in PYF broth, 37° C., 96 hours
[10] = test system: Clostridium ramosum JCM 1298; test: Assimilation test by intestinal microorganism; assay type: cell-based; settings: 0.5 w/v % saccharide in PYF broth, 37° C., 96 hours
[11] = test system: Peptostreptococcus prevotii ATCC 9321; test: Assimilation test by intestinal microorganism; assay type: cell-based; settings: 0.5 w/v % saccharide in PYF broth, 37° C., 96 hours
[12] = test system: Bacteroides uniformis JCM 5828; test: Assimilation test by intestinal microorganism; assay type: cell-based; settings: 0.5 w/v % saccharide in PYF broth, 37° C., 96 hours
[13] = test system: Bifidobacterium longum JCM 1217; test: Assimilation test by intestinal microorganism; assay type: cell-based; settings: 0.5 w/v % saccharide in PYF broth, 37° C., 96 hours
[14] = test system: Bifidobacterium bifidum JCM 1255; test: Assimilation test by intestinal microorganism; assay type: cell-based; settings: 0.5 w/v % saccharide in PYF broth, 37° C., 96 hours
[15] = test system: Eubacterium aerofaciens ATCC 25986; test: Assimilation test by intestinal microorganism; assay type: cell-based; settings: 0.5 w/v % saccharide in PYF broth, 37° C., 96 hours
[16] = test system: Bifidobacterium animalis JCM 1190; test: Assimilation test by intestinal microorganism; assay type: cell-based; settings: 0.5 w/v % saccharide in PYF broth, 37° C., 96 hours
[17] = test system: Bacteroides vulgatus JCM 5826; test: Assimilation test by intestinal microorganism; assay type: cell-based; settings: 0.5 w/v % saccharide in PYF broth, 37° C., 96 hours
[18] = test system: Lactobacillus plantarum IFO 3070; test: Assimilation test by intestinal microorganism; assay type: cell-based; settings: 0.5 w/v % saccharide in PYF broth, 37° C., 96 hours
[19] = test system: Lactobacillus fermentum IFO 3959; test: Assimilation test by intestinal microorganism; assay type: cell-based; settings: 0.5 w/v % saccharide in PYF broth, 37° C., 96 hours
[20] = test system: crude glucosyltransferase specimen derived from Streptococcus sobrinus strain (ATCC 27351); test: Inhibition of insoluble glucan formation by glucosyltransferase from dental caries-inducing microorganism; assay type: biochemical; settings: sucrose plus test saccharide (one ml of one w/v % each), pH 6.8, 37° C., 16 hours; for Yield of non-adsorbed glucans: sucrose alone 923; for Yield of adsorbed glucans: sucrose alone 1,160
Method: To a mixture solution consisting of one ml of one w/v % sucrose solution, one ml of one w/v % of a test saccharide solution, and 1.5 ml of 0.1M phosphate buffer (pH 6.8) was added 0.5 ml solution containing a crude glucosyltransferase specimen in a total protein content of 10 mg, and the mixture solution was placed in a small test tube which was then fixed and slanted to give a grade 30 degrees and allowed to react at 37° C. for 16 hours. The reaction mixture was transferred gently to another test tube and mixed with a solution obtained by washing carefully with 4 ml water the remaining substances adhered to the inner walls of the small test tube, and the mixture solution was centrifuged to obtain a precipitate as a non-adsorbed glucan. The amounts of the adsorbed- and non-adsorbed glucans thus obtained were respectively quantified by the anthrone-sulfuric acid method, and the total amount of them was regarded as the amount of the formed insoluble glucans. As a control system, a reaction system using water in place of the test saccharide solution, i.e. a reaction system using sucrose as a saccharide, was provided.

[21] = Maillard reaction (coloration with glycine); assay type: physicochemical; settings: 10 w/v % saccharide, one w/v % glycine, 50 mM phosphate buffer pH 7.0, 100° C., 90 min; 1-cm cell
[22] = test system: Enzyme from small intestinal mucus membrane; settings: enzymes of small intestinal mucus membranes
bifid bacteria [23] = test: Assimilation test by intestinal microorganism, overall judgement; assay type: cell-based; settings: results of Tables 4 and 5
Method: as §1

Acute toxicity test = assay type: in vivo; settings: oral, mice, highest possible dose
Text: As a result, no mouse died even when administered with a highest possible dose. This means that the LD50 is 50 g/kg mouse or more and concludes that it is extremely low in toxicity.

[24] = test system: Streptococcus sobrinus ATCC 27351; test: Acid formation by dental caries-inducing microorganisms; settings: living wet cells, 0.02M saccharide, Stephen buffer pH 7.0, 37° C.; for pH at each fermentation time (min): 0: 0 min; for pH at each fermentation time (min): 5: 5 min; for pH at each fermentation time (min): 15: 15 min; for pH at each fermentation time (min): 30: 30 min; for pH at each fermentation time (min): 60: 60 min; for pH at each fermentation time (min): 90: 90 min
bifid bacteria [25] = test: Influence on growth-promoting activity for bifid bacteria in vivo (feces of volunteers); parameters: species or system human; settings: after vs before 14-day administration; span over both saccharides
Method: The weight of daily feces before and after the 14-day administration tests, the relative change of feces' weight, the feces' pH, the total number of microorganisms per g of feces, the percentage of the number of bifid bacteria to the total number of microorganisms in feces, and the relative change of the total number of bifid bacteria were measured, followed by calculating the mean value of the five volunteers. Among these measurements, the total number of microorganisms was determined in accordance with the method as reported in "A Color Atlas of Anaerobic Bacteria", pp.53-65 (1984), edited by Tomotari MITSUOKA, published by Kabushiki Kaisha Sobunsha, Tokyo, Japan (1984): The colonies grown in 13 different types of media excluding M10 medium were judged for which genus they belong to and counted for cells. The cell count obtained with a specific medium, which gave the highest number of microorganisms for each genus, was determined to be a real cell count. The total cell count of microorganisms of all the genera was determined to be the total number of microorganisms in each volunteer's feces.

Row | Structure (SMILES) | Judgement of assimilation (turbidity at a wavelength of 750 nm × 5) [1] | Judgement of assimilation (turbidity at a wavelength of 750 nm × 5) [2] | Judgement of assimilation (turbidity at a wavelength of 750 nm × 5) [3] | Judgement of assimilation (turbidity at a wavelength of 750 nm × 5) [4] | Judgement of assimilation (turbidity at a wavelength of 750 nm × 5) [5] | Judgement of assimilation (turbidity at a wavelength of 750 nm × 5) [6] | Judgement of assimilation (turbidity at a wavelength of 750 nm × 5) [8] | Judgement of assimilation (turbidity at a wavelength of 750 nm × 5) [9] | Judgement of assimilation (turbidity at a wavelength of 750 nm × 5) [10] | Judgement of assimilation (turbidity at a wavelength of 750 nm × 5) [11] | Judgement of assimilation (turbidity at a wavelength of 750 nm × 5) [12] | Judgement of assimilation (turbidity at a wavelength of 750 nm × 5) [13] | Judgement of assimilation (turbidity at a wavelength of 750 nm × 5) [14] | Judgement of assimilation (turbidity at a wavelength of 750 nm × 5) [15] | Judgement of assimilation (turbidity at a wavelength of 750 nm × 5) [16] | Judgement of assimilation (turbidity at a wavelength of 750 nm × 5) [17] | Judgement of assimilation (turbidity at a wavelength of 750 nm × 5) [18] | Judgement of assimilation (turbidity at a wavelength of 750 nm × 5) [19] | Yield of non-adsorbed glucans [20] [µg/mL] | Yield of adsorbed glucans [20] [µg/mL] | other results
1 | O=C[C@H](O)[C@@H](O)[C@H](O)[C@H](O)CO [A, glucose, reference compound] | ++ (0.2 or higher but less than 0.3) | +++ (0.3 or higher) | ++ (0.2 or higher but less than 0.3) | +++ (0.3 or higher) | ++ (0.2 or higher but less than 0.3) | ++ (0.2 or higher but less than 0.3) | +++ (0.3 or higher) | + (0.15 or higher but less than 0.2) | + (0.15 or higher but less than 0.2) | + (0.15 or higher but less than 0.2) | ++ (0.2 or higher but less than 0.3) | +++ (0.3 or higher) | ++ (0.2 or higher but less than 0.3) | +++ (0.3 or higher) | +++ (0.3 or higher) | + (0.15 or higher but less than 0.2) | ++ (0.2 or higher but less than 0.3) | ++ (0.2 or higher but less than 0.3) | – | – | Judgement of assimilation (turbidity at a wavelength of 750 nm × 5) [7]: + (0.15 or higher but less than 0.2)
2 | OC[C@H]1O[C@H](OC[C@H]2O[C@H](O[C@H]3O[C@H](CO)[C@@H](O)[C@H](O)[C@H]3O)[C@H](O)[C@@H](O)[C@@H]2O)[C@H](O)[C@@H](O)[C@@H]1O [O-α-D-glucopyranosyl-(1→6)-α-D-glucopyranosyl α-D-glucopyranoside] | - (Less than 0.1) | + (0.15 or higher but less than 0.2) | +++ (0.3 or higher) | – | - (Less than 0.1) | +++ (0.3 or higher) | +++ (0.3 or higher) | - (Less than 0.1) | - (Less than 0.1) | ± (0.1 or higher but less than 0.15) | - (Less than 0.1) | +++ (0.3 or higher) | ++ (0.2 or higher but less than 0.3) | - (Less than 0.1) | +++ (0.3 or higher) | - (Less than 0.1) | - (Less than 0.1) | - (Less than 0.1) | 118 | 30 | Coloration degree (at a wavelength of 480 nm) [21]: 0.021; Digestibility, judgement in words [22]: slightly hydrolyzed; Selective assimilability by bifid bacteria, in words (bifid bacteria [23]): high in the selective assimilability by bifid bacteria; Mortality in acute toxicity test, in words (Acute toxicity test): no mouse died; pH at each fermentation time (min): 0 [24]: 7.0; pH at each fermentation time (min): 5 [24]: 7.0; pH at each fermentation time (min): 15 [24]: 6.9; pH at each fermentation time (min): 30 [24]: 6.9; pH at each fermentation time (min): 60 [24]: 6.9; pH at each fermentation time (min): 90 [24]: 6.9; Increase of the total cell count of bifid bacteria (bifid bacteria [25]): 2.3- to 2.5 fold
3 | OC[C@H]1O[C@H](OC[C@H]2O[C@H](O[C@H]3O[C@H](CO[C@H]4O[C@H](CO)[C@@H](O)[C@H](O)[C@H]4O)[C@@H](O)[C@H](O)[C@H]3O)[C@H](O)[C@@H](O)[C@@H]2O)[C@H](O)[C@@H](O)[C@@H]1O [α-Isomaltosyl α-isomaltoside, O-α-D-glucopyranosyl-(1→6)-α-D-glucopyranosyl O-α-D-glucopyranosyl-(1→6)-α-D-glucopyranoside] | - (Less than 0.1) | - (Less than 0.1) | +++ (0.3 or higher) | +++ (0.3 or higher) | - (Less than 0.1) | +++ (0.3 or higher) | +++ (0.3 or higher) | - (Less than 0.1) | - (Less than 0.1) | ± (0.1 or higher but less than 0.15) | - (Less than 0.1) | +++ (0.3 or higher) | ++ (0.2 or higher but less than 0.3) | - (Less than 0.1) | +++ (0.3 or higher) | - (Less than 0.1) | - (Less than 0.1) | - (Less than 0.1) | 298 | 72 | Coloration degree (at a wavelength of 480 nm) [21]: 0.016; Digestibility, judgement in words [22]: relatively-low in digestibility; Selective assimilability by bifid bacteria, in words (bifid bacteria [23]): high in the selective assimilability by bifid bacteria; pH at each fermentation time (min): 0 [24]: 7.0; pH at each fermentation time (min): 5 [24]: 7.0; pH at each fermentation time (min): 15 [24]: 6.9; pH at each fermentation time (min): 30 [24]: 6.9; pH at each fermentation time (min): 60 [24]: 6.9; pH at each fermentation time (min): 90 [24]: 6.9; Increase of the total cell count of bifid bacteria (bifid bacteria [25]): 2.3- to 2.5 fold
